Laboratory results reported in patent publication US5609875A, “Skin whitening composition” (Fischer Pharmaceuticals Ltd., priority 1994, dated 1997).

Test system: tyrosinase
Assay: In vitro tyrosinase inhibitory activity, colorimeter comparison at 475 nm
Assay type: biochemical
Description: Test in vitro on the effect of glycolic acid and glycyrrhiza dry extract on tyrosinase inhibitory activity has been carried out based on the Methodology of Maruzene Pharmaceuticals. The anti-tyrosinase activity was investigated by colorimeter comparison at 475 nm and calculated as percentage of the inhibitory activities. (Attached are the results).

% Tyrosinase Inhibition Test 1 (Glycolic acid 0.42 mg/5 ml): 4.86%
% Tyrosinase Inhibition Test 2 (Glycolic acid 0.42 mg/5 ml): 9.12%
% Tyrosinase Inhibition Test 1 (Glycolic acid 0.805 mg/5 ml): 5.64%
% Tyrosinase Inhibition Test 2 (Glycolic acid 0.805 mg/5 ml): 16.11%
% Tyrosinase Inhibition Test 1 (Glycolic acid 1.61 mg/5 ml): 7.60%
% Tyrosinase Inhibition Test 2 (Glycolic acid 1.61 mg/5 ml): 21.32%
% Tyrosinase Inhibition Test 1 (Glycolic acid 7.21 mg/5 ml): 10.74%
% Tyrosinase Inhibition Test 2 (Glycolic acid 7.21 mg/5 ml): 27.81%
SMILES: O=C(O)CO [Glycolic acid]
